Measured values published in US9018258B2, “Substituted 1-benzylcycloalkylcarboxylic acids and the use thereof” (Bayer Intellectual Property GmbH, priority 2010, dated 2015).

Columns and labels:
[1] = biological target: T1, soluble guanylate cyclase (sGC) (Rattus norvegicus, UniProt P20595); test: Stimulation of sGC enzyme activity (PPi detection, luciferase); assay type: biochemical; settings: sGC enzyme in vitro; for EC50: read-out: EC50 (concentration at 50% of maximum efficacy), activating action at the sGC enzyme
T1 construct: made in house; host or cells: Sf9 insect cells (baculovirus)
T1 sequence (P19686 whole entry partner): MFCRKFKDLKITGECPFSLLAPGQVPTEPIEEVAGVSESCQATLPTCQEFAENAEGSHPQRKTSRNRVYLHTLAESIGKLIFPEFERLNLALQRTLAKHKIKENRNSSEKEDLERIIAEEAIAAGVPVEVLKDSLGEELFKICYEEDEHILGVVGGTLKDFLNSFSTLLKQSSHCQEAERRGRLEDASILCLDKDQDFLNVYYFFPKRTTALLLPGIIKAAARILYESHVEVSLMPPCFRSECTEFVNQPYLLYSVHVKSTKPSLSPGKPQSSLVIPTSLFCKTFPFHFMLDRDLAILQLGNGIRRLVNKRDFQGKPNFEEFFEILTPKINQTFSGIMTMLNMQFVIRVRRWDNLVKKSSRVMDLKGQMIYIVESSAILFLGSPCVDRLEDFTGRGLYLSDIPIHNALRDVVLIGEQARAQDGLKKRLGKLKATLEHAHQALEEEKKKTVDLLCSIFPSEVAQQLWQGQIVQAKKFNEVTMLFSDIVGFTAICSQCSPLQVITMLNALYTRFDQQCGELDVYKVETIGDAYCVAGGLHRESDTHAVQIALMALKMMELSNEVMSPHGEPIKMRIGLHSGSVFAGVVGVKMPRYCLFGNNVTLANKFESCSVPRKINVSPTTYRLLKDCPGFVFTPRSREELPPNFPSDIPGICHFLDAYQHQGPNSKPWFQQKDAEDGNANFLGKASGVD
T1 sequence (P20595 whole entry): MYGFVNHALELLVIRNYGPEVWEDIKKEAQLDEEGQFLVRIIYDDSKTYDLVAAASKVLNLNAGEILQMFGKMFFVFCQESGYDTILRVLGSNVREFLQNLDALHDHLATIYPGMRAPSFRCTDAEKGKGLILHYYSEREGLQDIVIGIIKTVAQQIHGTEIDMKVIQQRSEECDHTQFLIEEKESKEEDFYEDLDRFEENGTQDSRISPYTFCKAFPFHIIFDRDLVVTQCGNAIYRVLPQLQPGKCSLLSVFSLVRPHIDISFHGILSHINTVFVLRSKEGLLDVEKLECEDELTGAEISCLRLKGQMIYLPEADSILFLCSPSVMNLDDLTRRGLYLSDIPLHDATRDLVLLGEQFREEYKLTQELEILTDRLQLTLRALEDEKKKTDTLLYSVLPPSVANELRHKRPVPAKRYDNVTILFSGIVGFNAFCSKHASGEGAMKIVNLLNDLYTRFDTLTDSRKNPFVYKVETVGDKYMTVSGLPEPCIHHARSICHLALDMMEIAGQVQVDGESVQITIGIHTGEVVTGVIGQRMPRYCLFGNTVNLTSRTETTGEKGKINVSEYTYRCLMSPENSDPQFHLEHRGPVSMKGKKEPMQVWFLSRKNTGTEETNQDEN
Method: Soluble guanylate cyclase (sGC) converts on stimulation GTP into cGMP and pyrophosphate (PPi). PPi is detected with the aid of the assay described below. The signal produced in the assay increases as the reaction progresses and serves as a measure of the sGC enzyme activity under the given stimulation.
To carry out the assay, 29 μl of enzyme solution [0-10 nM soluble guanylate cyclase (prepared according to Honicka et al., J. Mol. Med. 77, 14-23 (1999)) in 50 mM TEA, 2 mM MgCl2, 0.1% BSA (fraction V), 0.005% Brij®, pH 7.5] are initially introduced into a microplate, and 1 μl of the substance to be tested (as a serially diluted solution in DMSO) is added. The mixture is incubated at room temperature for 10 min. Then 20 μl of detection mix [1.2 nM Firefly Luciferase (Photinus pyralis luciferase, Promega), 29 μM dehydroluciferin (prepared according to Bitler & McElroy, Arch. Biochem. Biophys. 72, 358 (1957)), 122 μM luciferin (Promega), 153 μM ATP (Sigma) and 0.4 mM DTT (Sigma) in 50 mM TEA, 2 mM MgCl2, 0.1% BSA (fraction V), 0.005% Brij®, pH 7.5] are added. The enzyme reaction is started by adding 20 μl of substrate solution [1.25 mM guanosine 5′-triphosphate (Sigma) in 50 mM TEA, 2 mM MgCl2, 0.1% BSA (fraction V), 0.005% Brij®, pH 7.5] and measured continuously in a luminometer. The extent of the stimulation by the substance to be tested can be determined relative to the signal of the unstimulated reaction.
The activation of haem-free guanylate cyclase is examined by addition of 25 μM of 1H-1,2,4-oxadiazolo[4,3-a]quinoxalin-1-one (ODQ) to the enzyme solution and subsequent incubation for 30 minutes and compared to the stimulation of the native enzyme.

sGC = biological target: T2, sGC (Rattus norvegicus, UniProt P20595); test: Action at a recombinant guanylate cyclase reporter cell line (CHO reporter cell); assay type: cell-based; settings: CHO reporter cell in vitro
T2 construct: expressed in transfected cells; host or cells: CHO reporter cell
T2 sequence (P19686 whole entry partner): as the sequence (P19686 whole entry partner) above
T2 sequence (P20595 whole entry): as the sequence (P20595 whole entry) above
Method: The cellular action of the compounds according to the invention is determined at a recombinant guanylate cyclase reporter cell line, as described in F. Wunder et al., Anal. Biochem. 339, 104-112 (2005).

GAL4-PPARγ = biological target: T3, GAL4-PPARγ (Homo sapiens, UniProt P37231); test: Cellular PPAR transactivation assay, GAL4-PPARγ chimera in CHO-K1 cells; assay type: cell-based; settings: for Emax: CHO-K1, maximum effect relative to reference compound (Example 73 of EP 1 452 521-A1 = 100%), read-out: PPARγ efficacy; for EC50: CHO-K1 cells, luciferase reporter, 6 h stimulation
T3 construct: PPARγ (amino acids 203-506); expressed in transfected cells
T3 sequence (P37231 203-505 limits assumed): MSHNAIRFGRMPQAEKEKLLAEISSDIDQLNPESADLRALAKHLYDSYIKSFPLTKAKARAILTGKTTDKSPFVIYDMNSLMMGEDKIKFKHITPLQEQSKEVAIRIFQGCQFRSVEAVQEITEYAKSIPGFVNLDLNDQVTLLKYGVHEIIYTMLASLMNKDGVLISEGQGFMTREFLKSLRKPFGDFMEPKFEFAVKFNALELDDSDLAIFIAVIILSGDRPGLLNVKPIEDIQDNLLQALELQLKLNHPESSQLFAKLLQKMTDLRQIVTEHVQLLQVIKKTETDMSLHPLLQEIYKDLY
From the text: (§1) A cellular assay is used to test for potentially activating properties of the compounds according to the invention with respect to the three human isoforms of the peroxisome proliferator-activated receptors (PPARα, PPARγ and PPARδ).
(§2) Since mammalian cells contain different endogenous nuclear receptors which may complicate an unambiguous interpretation of the results, an established chimera system is used in which the respective ligand binding domain of the human PPAR isoforms is fused to the DNA binding domain of the yeast transcription factor GAL4. The resulting GAL4-PPARα, γ and δ chimeras are co-transfected and stably expressed in CHO cells having a reporter construct.
(§3) The GAL4-PPAR expression constructs contain the ligand binding domain of PPARα (amino acids 167-468), PPARγ (amino acids 203-506) and PPARδ (amino acids 138-442) which are PCR-amplified and cloned into the vector pcDNA3.1. The respective expression vectors already contain the GAL4 DNA binding domain (amino acids 1-147) of the vector pFC2-dbd (Stratagene). The reporter construct, which contains five copies of the GAL4 binding site upstream of a thymidine kinase promoter, expresses firefly luciferase (Photinus pyralis) following activation and binding of GAL4-PPARα, γ or δ.
(§4) The day before the test, CHO-K1 cells (chinese hamster ovary; ATCC CCL-61) each stably expressing one of the above-described GAL4-PPAR chimeras and the luciferase reporter gene construct are sown in medium [Optimem (GIBCO) with 2% activated carbon-purified foetal calf serum (Hyclone), 1.35 mM sodium pyruvate (GIBCO) and 0.2% sodium bicarbonate (GIBCO)] in a density of 1×10^3 cells in 96-well microtitre plates (Greiner) and kept in a cell incubator (96% atmospheric humidity, 5% v/v CO2, 37° C.). On the test day, the substances to be tested are taken up in the medium mentioned above, but without addition of calf serum, and added in various concentrations to the cells. After a stimulation period of 6 h, the luciferase activity is measured using a video camera. The relative light units measured give, as a function of the substance concentration, a sigmoidal stimulation curve. The EC50 values are calculated using the computer programme GraphPad PRISM (Version 3.02). The maximum effect of a test substance in the respective PPAR assay is determined as efficacy in percent in comparison to an appropriate reference compound whose maximum effect is defined as 100%.
(§5) The reference compound selected here was the compound 2-(3-{[(2-chloro-4-propoxybenzoyl)-amino]methyl}-4-ethoxybenzyl)tetrahydrofuran-2-carboxylic acid [Example 73 of EP 1 452 521-A1] which is described in the prior art as a potent pan-PPAR agonist.

GAL4-PPARδ = biological target: T4, GAL4-PPARδ (Homo sapiens, UniProt Q03181); test: Cellular PPAR transactivation assay, GAL4-PPARδ chimera in CHO-K1 cells; assay type: cell-based; settings: for Emax: CHO-K1, maximum effect relative to reference compound (Example 73 of EP 1 452 521-A1 = 100%), read-out: PPARδ efficacy; for EC50: CHO-K1 cells, luciferase reporter, 6 h stimulation
T4 construct: PPARδ (amino acids 138-442); expressed in transfected cells
T4 sequence (Q03181 138-441 limits assumed): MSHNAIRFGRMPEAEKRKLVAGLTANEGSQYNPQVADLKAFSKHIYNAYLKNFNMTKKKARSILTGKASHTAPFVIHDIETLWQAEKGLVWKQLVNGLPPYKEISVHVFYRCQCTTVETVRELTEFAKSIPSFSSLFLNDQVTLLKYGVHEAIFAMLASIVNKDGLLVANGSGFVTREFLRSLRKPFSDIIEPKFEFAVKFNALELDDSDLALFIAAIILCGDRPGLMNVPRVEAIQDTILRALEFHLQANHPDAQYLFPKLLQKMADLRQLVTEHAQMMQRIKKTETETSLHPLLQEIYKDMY
From the text: as §1, §2, §3, §4, §5

GAL4-PPARα = biological target: T5, GAL4-PPARα (Homo sapiens, UniProt Q07869); test: Cellular PPAR transactivation assay, GAL4-PPARα chimera in CHO-K1 cells; assay type: cell-based; settings: for Emax: CHO-K1, maximum effect relative to reference compound (Example 73 of EP 1 452 521-A1 = 100%), read-out: PPARα efficacy; for EC50: CHO-K1 cells, luciferase reporter, 6 h stimulation
T5 construct: expressed in transfected cells
T5 sequence (Q07869 167-468): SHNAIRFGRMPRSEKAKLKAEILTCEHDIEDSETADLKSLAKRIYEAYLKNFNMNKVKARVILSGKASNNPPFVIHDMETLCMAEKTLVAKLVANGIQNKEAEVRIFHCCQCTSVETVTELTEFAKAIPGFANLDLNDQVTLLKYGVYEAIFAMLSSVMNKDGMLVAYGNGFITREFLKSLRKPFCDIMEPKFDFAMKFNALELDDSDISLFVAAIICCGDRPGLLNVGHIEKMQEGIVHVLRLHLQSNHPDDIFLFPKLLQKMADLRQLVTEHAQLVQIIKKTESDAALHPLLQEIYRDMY
From the text: as §1, §2, §3, §4, §5

MEC (minimum effective concentration), activating action at the sGC enzyme [1] [nM] | EC50 [1] [nM] | MEC (minimum effective concentration), sGC-activating activity in the CHO reporter cell (sGC) [nM] | Emax (GAL4-PPARγ) [%] | EC50 (GAL4-PPARγ) [nM] | Emax (GAL4-PPARδ) [%] | EC50 (GAL4-PPARδ) [nM] | Emax (GAL4-PPARα) [%] | EC50 (GAL4-PPARα) [nM] | SMILES
3.8 | 83 | 1.7 | 0 | > 10000 | 0 | > 10000 | 0 | > 10000 | O=C(Nc1cc(CC2(C(=O)O)CC2)ccc1Cl)C(c1ccc(Cl)cc1)C1CCC(F)(F)C1 (single isomer, unassigned) [Example 73, 1-(4-Chloro-3-{[(4-chlorophenyl)(3,3-difluorocyclopentyl)acetyl]amino}benzyl)cyclopropane-carboxylic acid]
3.4 | 44 | 1.7 | 20 | 2300 | 0 | > 10000 | 0 | > 10000 | CC(C(C(=O)Nc1cc(CC2(C(=O)O)CC2)ccc1Cl)c1ccc(CC(F)(F)F)cc1)C(F)(F)F (single isomer, unassigned) [Example 82, 1-[4-Chloro-3-({4,4,4-trifluoro-3-methyl-2-[4-(2,2,2-trifluoroethyl)phenyl]butanoyl}amino)-benzyl]cyclopropanecarboxylic acid]
36 | 240 | 3 | 10 |  | 0 | > 10000 | 0 | > 10000 | [2H]C([2H])([2H])OC(c1ccc(Cl)c(NC(=O)[C@H](c2ccc(Cl)cc2)[C@@H](C)C(F)(F)F)c1)C1(C(=O)O)CCC1 (single isomer, unassigned) [Example 105]
22 | 330 | 3 | 10 | 2000 | 0 | > 10000 | 0 | > 10000 | COC(c1ccc(Cl)c(NC(=O)[C@H](c2ccc(Cl)cc2)[C@@H](C)C(F)(F)F)c1)C1(C(=O)O)CCC1 (single isomer, unassigned) [Example 107]
2.6 | 45 | 1 | 0 | > 10000 | 0 | > 10000 | 0 | > 10000 | O=C(Nc1cc(CC2(C(=O)O)CC2)ccc1F)[C@H](c1ccc(Cl)cc1)C1CCCC1(F)F (single isomer, unassigned; (+)) [Example 68]
3.9 | 70 | 3 | 0 | > 10000 | 0 | > 10000 | 0 | > 10000 | COC(c1ccc(Cl)c(NC(=O)[C@H](c2ccc(Cl)cc2)[C@@H](C)C(F)(F)F)c1)C1(C(=O)O)CC1 (single isomer, unassigned; (+)) [Example 89]
0.9 | 7.3 | 2.3 | 30 | 1900 | 0 | > 10000 | 0 | > 10000 | C[C@H]([C@H](C(=O)Nc1cc(CC2(C(=O)O)CC2)ccc1Cl)c1ccc(Cl)cc1F)C(F)(F)F [Example 32, (+)-1-(4-chloro-3-{[(2S,3R)-2-(4-chloro-2-fluoro-phenyl)-4,4,4-trifluoro-3-methylbutanoyl]-amino}benzyl)cyclopropanecarboxylic acid]
3.4 | 24 | 3 | 10 | 1800 | 0 | > 10000 | 0 | > 10000 | COc1cc([C@@H](C(=O)Nc2cc(CC3(C(=O)O)CC3)ccc2Cl)[C@@H](C)C(F)(F)F)ccc1Cl [Example 43, 1-(4-chloro-3-{[(2S,3R)-2-(4-chloro-3-methoxy-phenyl)-4,4,4-trifluoro-3-methylbutanoyl]amino}-benzyl)cyclopropanecarboxylic acid]
